Source: patent US9399028B2, “Treatment of drug resistant cancer” (ROCKEFELLER UNIVERSITY (THE), priority 2012, dated 2016)
Counter-ions that a name gives are not always drawn.

Tests used:
[1] = tested on: extracellular ApoE protein; assay: ApoE ELISA of conditioned media; assay type: cell-based, human; details: MeWo cells, 1 μM, 72 hours
Protocol: Extracellular ApoE levels in serum-free conditioned media from melanoma cells treated with DMSO, GW3965, or T0901317 (1 μM each) were quantified using the ApoE ELISA kit (Innovative Research) at 72 hours following treatment.

[2] = tested on: human breast, pancreatic, renal, lung cancer and uveal melanoma cell lines; assay: Trans-well matrigel invasion assay, other cancer types; assay type: cell-based
Protocol: The ability of cancer cells to invade through matrigel in vitro was tested by using a trans-well matrigel invasion chamber system (354480, BD Biosciences). Various cancer cell lines were serum-starved overnight in media containing 0.2% FBS. The following day, invasion chambers were pre-equilibrated prior to the assay by adding 0.5 mL of starvation media to the top and bottom wells. Meanwhile, cancer cells were trypsinized and viable cells were counted using the trypan blue dead cell exclusion dye. Cancer cells were then resuspended at a concentration of 1×10^5 cells/1 mL starvation media, and 0.5 mL of cell suspension, containing 5×10^4 cells, was seeded into each trans-well. […] The basal side of each insert was imaged using an inverted fluorescence microscope (Zeiss Axiovert 40 CFL) at 5× magnification, and the number of DAPI-positive cells was quantified using ImageJ.
The cells were serum starved for 16 hours in 0.2% FBS media in the presence of DMSO or GW3965. […] Meanwhile, cancer cells were trypsinized and viable cells were counted using trypan blue. […] The basal side of each insert was imaged using an inverted fluorescence microscope (Zeiss Axiovert 40 CFL) at 5× magnification, and the number of DAPI-positive cells was quantified using ImageJ.

Molecule	levels of secreted ApoE protein [1]	tumor cell invasion in renal, pancreatic and lung cancer cells ([2]; RCC, PANC1, H460 cells, 1 μM for 72 hours)	tumor cell invasion across breast, renal cell and pancreatic cancer ([2]; recombinant ApoE3 100 μg/mL)
O=C(O)Cc1cccc(OCCCN(Cc2cccc(C(F)(F)F)c2Cl)CC(c2ccccc2)c2ccccc2)c1 [GW3965 2, 3-[3-[N-(2-Chloro-3-trifluoromethylbenzyl)-(2,2-diphenylethyl)amino]propyloxy]phenylacetic acid hydrochloride]	elevated levels	inhibition	
O=S(=O)(c1ccccc1)N(CC(F)(F)F)c1ccc(C(O)(C(F)(F)F)C(F)(F)F)cc1 [T0901317 1]	elevated levels		
recombinant human ApoE3: recombinant human ApoE3 (4696, BioVision)			inhibited
